# Source: US9834559B2, “4-Amino-6-phenyl-5,6-dihydroimidazo[1,5-a]pyrazin-3(2H)-one derivatives as inhibitors of beta-secretase (BACE)” (Janssen Pharmaceutica NV, priority 2013, dated 2017)
# Assays:
# [1] = test system: Abeta 1-42 produced and secreted by human neuroblastoma SKNBE2 cells expressing hAPP695; assay: Cellular αLisa assay in SKNBE2 cells, Abeta 1-42; type: cell-based; conditions: 18 hours incubation, read-out: Cellular αLisa assay in SKNBE2 cells Abeta 42 pIC50 (converted)
# Experimental: In two αLisa assays the levels of Abeta total and Abeta 1-42 produced and secreted into the medium of human neuroblastoma SKNBE2 cells are quantified. The assay is based on the human neuroblastoma SKNBE2 expressing the wild type Amyloid Precursor Protein (hAPP695). The compounds are diluted and added to these cells, incubated for 18 hours and then measurements of Abeta 1-42 and Abeta total are taken. Abeta total and Abeta 1-42 are measured by sandwich αLisa. αLisa is a sandwich assay using biotinylated antibody AbN/25 attached to streptavidin coated beads and antibody Ab4G8 or cAb42/26 conjugated acceptor beads for the detection of Abeta total and Abeta 1-42 respectively. In the presence of Abeta total or Abeta 1-42, the beads come into close proximity. The excitation of the donor beads provokes the release of singlet oxygen molecules that trigger a cascade of energy transfer in the acceptor beads, resulting in light emission. Light emission is measured after 1 hour incubation (excitation at […] and emission at 615 nm).
# A best-fit curve is fitted by a minimum sum of squares method to the plot of % Controlmin versus compound concentration. From this an IC50 value (inhibitory concentration causing 50% inhibition of activity) can be obtained. • LC=Median of the low control values • =Low control: cells preincubated without compound, without biotinylated Ab in the αLisa • HC=Median of the High control values • =High Control: cells preincubated without compound • % Effect=100−[(sample−LC)/(HC−LC)*100] • % Control=(sample/HC)*100 • % Controlmin=(sample−LC)/(HC−LC)*100
# [2] = test system: brain levels of soluble Aβ40 and Aβ42; assay: In vivo Aβ lowering, brain levels of soluble Aβ by MSD electrochemiluminescence; set-up: species or system mouse; conditions: untreated control = 100
# Text: To determine whether acute administration of an Aβ lowering agent would reduce Aβ levels in vivo, non-transgenic rodents, e.g. mice or rats were used. Animals treated with the Aβ lowering agent were examined and compared to those untreated or treated with vehicle and brain levels of soluble Aβ42, Aβ40, Aβ38, and Aβ37 were quantitated by Meso Scale Discovery's (MSD) electrochemiluminescence detection technology. Treatment periods varied from hours (h) to days and were adjusted based on the results of the Aβ lowering once a time course of onset of effect could be established.
# A typical protocol for measuring Aβ lowering in vivo is shown but it is only one of many variations that could be used to optimize the levels of detectable Aβ. For example, Aβ lowering compounds were formulated in 20% of Captisol® (a sulfo-butyl ether of β-cyclodextrin) in water or 20% hydroxypropyl β cyclodextrin. The Aβ lowering agents were administered as a single oral dose or by any acceptable route of administration to overnight fasted animals. After 4 h, the animals were sacrificed and Aβ levels were analysed.
# Blood was collected by decapitation and exsanguinations in EDTA-treated collection tubes. Blood was centrifuged at 1900 g for 10 minutes (min) at 4° C. and the plasma recovered and flash frozen for later analysis. The brain was removed from the cranium and hindbrain. The cerebellum was removed and the left and right hemisphere were separated. The left hemisphere was stored at −18° C. for quantitative analysis of test compound levels. The right hemisphere was rinsed with phosphate-buffered saline (PBS) buffer and immediately frozen on dry ice and stored at −80° C. until homogenization for biochemical assays.
# Mouse brains from non-transgenic animals were resuspended in 8 volumes of 0.4% DEA (diethylamine)/50 mM NaCl containing protease inhibitors (Roche-11873580001 or 04693159001) per gram of tissue, e.g. for 0.158 g brain, add 1.264 ml of 0.4% DEA. All samples were homogenized in the FastPrep-24 system (MP Biomedicals) using lysing matrix D (MPBio #6913-100) at 6 m/s for 20 seconds. Homogenates were centrifuged at 20800×g for 5 min and supernatants collected. Supernatants were centrifuged at 221.300×g for 50 min. The resulting high speed supernatants were then transferred to fresh eppendorf tubes. Nine parts of supernatant were neutralized with 1 part 0.5 M Tris-HCl pH 6.8 and used to quantify Aβ.
# To quantify the amount of Aβ42, Aβ40, Aβ38, and Aβ37 in the soluble fraction of the brain homogenates, simultaneous specific detection of Aβ42, Aβ40, Aβ38, and Aβ37 was performed using MSD's electro-chemiluminescence multiplex detection technology. In this assay purified monoclonal antibodies specific for Abeta37 (JRD/Aβ37/3), Abeta38 (J&JPRD/Aβ38/5), Abeta40 (JRF/cAβ40/28), and Abeta42 (JRF/cAβ42/26) were coated on MSD 4-plex plates. Briefly, the standards (a dilution of synthetic Aβ42, Aβ40, Aβ38, and Aβ37) were prepared in 1.5 ml Eppendorf tube in Ultraculture, with final concentrations ranging from 10000 to 0.3 pg/m. The samples and standards were co-incubated with Sulfo-tag labelled JRF/rAβ/2 antibody to the N-terminus of Aβ as detector antibody. 50 μl of conjugate/sample or conjugate/standards mixtures were then added to the antibody-coated plate. The plate was allowed to incubate overnight at 4° C. in order to allow formation of the antibody-amyloid complex. Following this incubation and subsequent wash steps the assay was finished by adding read buffer according to the manufacturer's instructions (Meso Scale Discovery, Gaitherburg, Md.).
# The SULFO-TAG emits light upon electrochemical stimulation initiated at the electrode. MSD Sector instrument SI6000 was used for signal read-out.
# The results are shown in Table 7 (value for untreated animals as control (Ctrl) was set at 100): […]
# [3] = dose 10, s.c., 2 h after administration
# [4] = dose 10, s.c., 4 h after administration
# [5] = dose 10, p.o., 4 h after administration
SMILES,IC50 [1],"Aβ40 (% vs Ctrl)_Mean [2, 3]","Aβ42 (% vs Ctrl)_Mean [2, 3]","Aβ40 (% vs Ctrl)_Mean [2, 4]","Aβ42 (% vs Ctrl)_Mean [2, 4]","Aβ40 (% vs Ctrl)_Mean [2, 5]","Aβ42 (% vs Ctrl)_Mean [2, 5]",melting point
"Cn1cc2n(c1=O)C[C@@](C)(c1cc(NC(=O)c3ccc(C#N)cn3)ccc1F)N=C2N [Compound 1, N-{3-[(6R)-8-Amino-2,6-dimethyl-3-oxo-2,3,5,6-tetrahydroimidazo[1,5-a]pyrazin-6-yl]-4-fluorophenyl}-5-cyanopyridine-2-carboxamide]",13.2 nM,105 % vs Ctrl,105 % vs Ctrl,132 % vs Ctrl,109 % vs Ctrl,–,–,–
"Cc1nc(C(=O)Nc2ccc(F)c([C@]3(C)Cn4c(cn(C)c4=O)C(N)=N3)c2)co1 [Compound 3, N-{3-[(6R)-8-Amino-2,6-dimethyl-3-oxo-2,3,5,6-tetrahydroimidazo[1,5-a]pyrazin-6-yl]-4-fluorophenyl}-2-methyl-1,3-oxazole-4-carboxamide]",57.5 nM,–,–,–,–,94 % vs Ctrl,97 % vs Ctrl,–
"Cn1cc2n(c1=O)C[C@@](C)(c1cc(NC(=O)c3ccc(Cl)cn3)ccc1F)N=C2N [Compound 4, N-{3-[(6R)-8-amino-2,6-dimethyl-3-oxo-5H-imidazo[1,5-a]pyrazin-6-yl]-4-fluoro-phenyl}-5-chloro-pyridine-2-carboxamide]",6.31 nM,–,–,121 % vs Ctrl,125 % vs Ctrl,–,–,214.8 °C
